Data set [1] has as its system Syrian golden hamster. In words: Inhibition of testosterone-induced flank organ enlargement in golden hamster assessed as reduction in diameter of pigmented spot at 2 mg/kg, sc administered daily for 6 days measured post last dose by calliper method. The note with it: Mesocricetus auratus. The class given is functional, organism-based.
Data set [2] concerns the target T1, 3-oxo-5-alpha-steroid 4-dehydrogenase 2 (Homo sapiens) (UniProt P31213).
T1 sequence (whole entry): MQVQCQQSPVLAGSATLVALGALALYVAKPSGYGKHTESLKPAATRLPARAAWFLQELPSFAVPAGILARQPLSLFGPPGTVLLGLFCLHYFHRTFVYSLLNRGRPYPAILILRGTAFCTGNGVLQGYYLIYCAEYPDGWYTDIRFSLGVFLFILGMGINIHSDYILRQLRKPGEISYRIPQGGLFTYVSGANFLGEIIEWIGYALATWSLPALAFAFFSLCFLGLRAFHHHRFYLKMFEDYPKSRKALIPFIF
In words: Inhibition of 5alpha-reductase2 (unknown origin).

Data set [3] in a line: Drug metabolism in golden hamster plasma assessed as esterase-mediated 21(2-Oxo-ethyl-benzimidazol)-3-ceto, pregnen-16,17-diene formation at 4 mg/kg, sc measured after 60 to 120 mins in presence of testosterone by TLC method. The class given is ADME, organism-based, Mesocricetus auratus. The note with it: in vivo.
The test system of data set [4] is Syrian golden hamster. In words: Inhibition of testosterone-induced increase in prostate weight in golden hamster at 2 mg/kg, sc administered daily for 6 days measured post last dose. Particulars: Mesocricetus auratus. The class given is functional, organism-based.
Data set [5] in a line: Stability of the compound in water. The note with it: buffer. It counts as physicochemical.
In data set [6] the test system is Syrian golden hamster. In words: Inhibition of testosterone-induced increase in seminal vesicle weight in golden hamster at 2 mg/kg, sc administered daily for 6 days measured post last dose. The class given is functional, organism-based. Particulars: Mesocricetus auratus.
For data set [7], the target named is T2, 3-oxo-5-alpha-steroid 4-dehydrogenase 1 (Rattus norvegicus, UniProt P24008).
T2 sequence (P24008 whole entry): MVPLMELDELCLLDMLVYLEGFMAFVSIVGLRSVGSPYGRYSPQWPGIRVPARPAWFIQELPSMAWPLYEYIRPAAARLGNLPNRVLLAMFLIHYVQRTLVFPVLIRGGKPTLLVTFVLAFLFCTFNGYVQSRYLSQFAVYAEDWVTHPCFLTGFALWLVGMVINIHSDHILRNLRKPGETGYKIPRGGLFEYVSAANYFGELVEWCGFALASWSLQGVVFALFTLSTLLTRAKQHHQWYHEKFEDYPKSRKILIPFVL
As to the kind of experiment: Inhibition of rat liver microsomes 5alpha-reductase1 using [1,2,6,7-3H]T as substrate measured after 60 mins by chromatographic method. Background: Microsomes from liver hold many membrane-bound enzymes, among them those of drug oxidation.

Data set [8] is described as follows: Drug metabolism in golden hamster plasma assessed as esterase-mediated 21(2-Oxo-ethyl-benzimidazol)-3-ceto, pregnen-16,17-diene formation by measuring retardation factor at 4 mg/kg, sc measured after 30 mins in presence of testosterone by TLC method. It counts as ADME, organism-based, Mesocricetus auratus. Particulars: in vivo, 0.5 h.
Data set [9] deals with Syrian golden hamster. In words: Inhibition of testosterone-induced increase in seminal vesicle weight in golden hamster at 1 mg/kg, sc administered daily for 6 days measured post last dose. It counts as functional, organism-based. Particulars: Mesocricetus auratus.
The subject of data set [10] is Syrian golden hamster. In words: Inhibition of testosterone-induced flank organ enlargement in golden hamster assessed as reduction in diameter of pigmented spot at 1 mg/kg, sc administered daily for 6 days measured post last dose by calliper method. The class given is functional, organism-based. Particulars: Mesocricetus auratus.
In data set [11] the test system is Syrian golden hamster. In words: Inhibition of testosterone-induced increase in prostate weight in golden hamster at 1 mg/kg, sc administered daily for 6 days measured post last dose. It counts as functional, organism-based. Particulars: Mesocricetus auratus.
For data set [12], the system named is Syrian golden hamster. In words: Inhibition of testosterone-induced flank organ enlargement in golden hamster assessed as diameter of pigmented spot at 2 mg/kg, sc administered daily for 6 days measured post last dose by calliper method. The class given is functional, Mesocricetus auratus.

Calls of active or inactive are those of the source. The rule behind the calls is not given here.

Consider `Cc1ccc(C(=O)O[C@H]2CC[C@@]3(C)C(=CC[C@@H]4[C@@H]3CC[C@]3(C)C(n5cnc6ccccc65)=C(C=O)C[C@@H]43)C2)cc1`, for which the inhibition entry in the data set with Syrian golden hamster [1], in the data set on Syrian golden hamster [4] and in the data set with Syrian golden hamster [6] was “Active” throughout. In addition, in data set [2], the inhibition entry was “inactive”. Moreover, in [3], the Drug metabolism entry is given as “Metabolite_Detected”. Further, the Stability result in data set [5] is listed as “Stable”. Moreover, the half-maximal inhibitory concentration (IC50) (in general, the point on the concentration scale where inhibition reaches its midpoint) in [7] is recorded as “Not Active”.
Regarding `C[C@]12CC[C@H](OC(=O)c3ccc(Cl)cc3)CC1=CC[C@@H]1[C@@H]2CC[C@]2(C)C(n3cnc4ccccc43)=C(C=O)C[C@@H]12`, the inhibition entry with Syrian golden hamster [1], with Syrian golden hamster [4] and in the data set on Syrian golden hamster [6] was “Active” each time. The inhibition entry in data set [2] was “inactive”. Also, the Rf in [8] was determined as 0.42. In addition, the Stability result in [5] is reported as “Unstable”. Further, in [7] (read-out: IC50), the 50% inhibitory concentration (IC50) stood at 83 µM.
Consider `C[C@]12CC[C@H](OC(=O)c3ccc(I)cc3)CC1=CC[C@@H]1[C@@H]2CC[C@]2(C)C(n3cnc4ccccc43)=C(C=O)C[C@@H]12`, for which the inhibition entry in the data set with Syrian golden hamster [1], in the data set with Syrian golden hamster [4] and with Syrian golden hamster [6] was “Active” in each case. The inhibition result in data set [2] is “inactive”. The Rf in data set [8] was determined as 0.42. Besides, in [5], the Stability result was “Stable”. Besides, in data set [7], the half-inhibitory concentration (IC50) entry is listed as “Not Active”.
`CC(C)(C)NC(=O)[C@H]1CC[C@H]2[C@@H]3CC[C@H]4NC(=O)C=C[C@]4(C)[C@H]3CC[C@]12C`: the inhibition entry in the data set with Syrian golden hamster [9], in the data set on Syrian golden hamster [10] and with Syrian golden hamster [11] was “Active” each time.
On to `C[C@]12CC[C@H](OC(=O)c3ccc(F)cc3)CC1=CC[C@@H]1[C@@H]2CC[C@]2(C)C(n3cnc4ccccc43)=C(C=O)C[C@@H]12`, for which the inhibition entry in data set [2] is “inactive”. The Rf in data set [8] was found to be 0.42. In addition, the Activity in the data set on Syrian golden hamster [12] is on record as 1.7 mm. The inhibition entry in the data set with Syrian golden hamster [4] and in the data set with Syrian golden hamster [6] was “Active” in each case. Also, in data set [5], the Stability result is on record as “Unstable”. In addition, the IC50 in [7] (read-out: IC50) is 40 µM.
On to `C[C@]12CC[C@H](OC(=O)c3ccc(Br)cc3)CC1=CC[C@@H]1[C@@H]2CC[C@]2(C)C(n3cnc4ccccc43)=C(C=O)C[C@@H]12`, for which the inhibition entry with Syrian golden hamster [1], in the data set on Syrian golden hamster [4] and in the data set on Syrian golden hamster [6] was “Active” in each case. Moreover, the inhibition result in [2] was “inactive”. Further, the Drug metabolism entry in data set [3] is on record as “Metabolite_Detected”. The Rf in data set [8] came to 0.42. In addition, the Stability entry in [5] is reported as “Stable”. Besides, in data set [7], the IC50 entry is reported as “Not Active”.
For `C[C@]12CC[C@H](O)CC1=CC[C@@H]1[C@@H]2CC[C@]2(C)C(n3cnc4ccccc43)=C(C=O)C[C@@H]12`, the inhibition result in the data set on Syrian golden hamster [1], with Syrian golden hamster [4] and in the data set with Syrian golden hamster [6] was “Active” throughout. In data set [2], the inhibition entry was “inactive”. The IC50 in data set [7] (read-out: IC50) was 0.291 µM.
Regarding `C[C@]12CC[C@H](OC(=O)c3ccccc3)CC1=CC[C@@H]1[C@@H]2CC[C@]2(C)C(n3cnc4ccccc43)=C(C=O)C[C@@H]12`, the inhibition entry in the data set with Syrian golden hamster [1], in the data set on Syrian golden hamster [4] and with Syrian golden hamster [6] was “Active” in each case. Besides, the inhibition result in data set [2] is “inactive”. The Drug metabolism entry in [3] was “Metabolite_Detected”. Moreover, the Stability entry in data set [5] is reported as “Stable”. The concentration for half-maximal inhibition (IC50) entry in data set [7] is “Not Active”.

(Values after ChEMBL document CHEMBL4229445, “Activity of steroid 4 and derivatives 4a-4f as inhibitors of the enzyme 5α-reductase 1” (Bioorg Med Chem, 2018).)
